Drawing on PubChem BioAssay (NCI), this text covers TGI and GI50 for eight molecules.

Some test systems named below: NCI-H23 lung; HL-60(TB) leukemia; NCI-H460 lung; MOLT-4 leukemia; MDA-MB-231 breast; NCI-H522 lung; DU-145 prostate; SF-295 CNS; HS 578T breast; A498 renal.
Common to all, as to experiment: NCI tumour cell line growth inhibition, 48 h

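How tested: cells in 96-well plates exposed to compound for 48 hours at five concentrations. GI50 marks 50% less growth. At the TGI there is no net growth.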

With `Nc1nc2c(C(=O)NCc3cccs3)nnn2c2cccc(Cl)c12`, the TGI in the assay on NCI-H23 lung, with HL-60(TB) leukemia, with NCI-H460 lung, in the assay on MOLT-4 leukemia, in the assay with MDA-MB-231 breast and in the assay with NCI-H522 lung was > 100 µM throughout. Also, the TGI in the assay on DU-145 prostate, in the assay with SF-295 CNS, in the assay on HS 578T breast and in the assay with A498 renal was > 100 µM throughout.

Take `N#CC1=C(N)Oc2c(ccc3ccccc23)C1c1cc(=O)oc2ccc(Cl)cc12` (configuration not stated): the GI50 was 4.96 µM in the assay on NCI-H23 lung; 0.275 µM in the assay on HL-60(TB) leukemia; 0.466 µM in the assay with NCI-H460 lung; 0.887 µM in the assay on MOLT-4 leukemia; 4.36 µM with MDA-MB-231 breast; 0.348 µM with NCI-H522 lung. For the same molecule, the GI50 in the assay on DU-145 prostate is 4.11 µM; in the assay on SF-295 CNS it was 0.398 µM; in the assay on HS 578T breast it was 0.656 µM; in the assay with A498 renal it was 0.805 µM. Further, the TGI with NCI-H23 lung was > 100 µM; in the assay on HL-60(TB) leukemia, 1.51 µM; in the assay on NCI-H460 lung, 14 µM; in the assay with MOLT-4 leukemia, 87.8 µM; with MDA-MB-231 breast it was > 100 µM; in the assay with NCI-H522 lung, 2.97 µM. In addition, the TGI with DU-145 prostate is > 100 µM; in the assay with SF-295 CNS it was 20.1 µM; in the assay on HS 578T breast it was 47.2 µM; with A498 renal, 42.2 µM.

In the case of `C#C[C@@]1(O)[C@@H](CO)O[C@@H](n2cc(I)c3c(N)ncnc32)[C@@H]1O`, the GI50 with NCI-H23 lung was 0.327 µM; in the assay with HL-60(TB) leukemia, 0.0462 µM; with NCI-H460 lung, 0.0895 µM; in the assay on MOLT-4 leukemia it was 0.0489 µM; in the assay with MDA-MB-231 breast, 0.185 µM; in the assay on NCI-H522 lung it was 0.0993 µM. Moreover, the GI50 in the assay on DU-145 prostate is 0.127 µM; with SF-295 CNS, 0.432 µM; in the assay with HS 578T breast, 0.785 µM; in the assay on A498 renal it was 0.309 µM. The TGI is 6.48 µM in the assay on NCI-H23 lung; 0.262 µM in the assay on HL-60(TB) leukemia; 1.91 µM in the assay on NCI-H460 lung; 0.831 µM in the assay on MOLT-4 leukemia; > 100 µM in the assay on MDA-MB-231 breast; 0.6 µM with NCI-H522 lung. Besides, the TGI in the assay with DU-145 prostate was > 100 µM; in the assay with SF-295 CNS, 3.77 µM; in the assay on HS 578T breast it was 7.83 µM; in the assay on A498 renal, 1.43 µM.

As for `CCCOC(=O)c1c(C)n(C)c2scc[n+]12`, the GI50 with NCI-H23 lung is 34.2 µM; in the assay with HL-60(TB) leukemia, > 100 µM; in the assay on NCI-H460 lung, 52.8 µM; in the assay with MOLT-4 leukemia it was 53.9 µM; with MDA-MB-231 breast, > 100 µM; with NCI-H522 lung, 31.4 µM. Further, the GI50 is 86.1 µM with DU-145 prostate, 41.7 µM in the assay on SF-295 CNS, 19.8 µM in the assay with HS 578T breast and 24 µM in the assay on A498 renal. In addition, the TGI with NCI-H23 lung, in the assay on HL-60(TB) leukemia, in the assay on NCI-H460 lung, in the assay with MOLT-4 leukemia, with MDA-MB-231 breast and in the assay with NCI-H522 lung was > 100 µM in each case. Besides, the TGI in the assay on DU-145 prostate was > 100 µM; in the assay on SF-295 CNS, > 100 µM; in the assay on HS 578T breast it was 74 µM; with A498 renal, 71.9 µM.

Take `CC(C)N(Cc1ccc(CN(C(=O)CCl)C(C)C)cc1)C(=O)CCl`: the GI50 in the assay with NCI-H23 lung is 1.1 µM; in the assay on HL-60(TB) leukemia it was 1.95 µM; in the assay on NCI-H460 lung it was 1.98 µM; in the assay with MOLT-4 leukemia, 2.33 µM; in the assay on MDA-MB-231 breast, 2.1 µM; in the assay with NCI-H522 lung, 0.156 µM. The GI50 in the assay with DU-145 prostate is 3.23 µM; in the assay on SF-295 CNS it was 1.81 µM; in the assay on HS 578T breast it was 2.75 µM; in the assay on A498 renal it was 1.9 µM. Besides, the TGI in the assay with NCI-H23 lung stood at 3.6 µM; with HL-60(TB) leukemia it was 4.96 µM; in the assay with NCI-H460 lung, 4.74 µM; in the assay with MOLT-4 leukemia, 8.13 µM; in the assay on MDA-MB-231 breast, 6.42 µM; in the assay with NCI-H522 lung, 0.342 µM. Moreover, the TGI in the assay on DU-145 prostate turned out to be 12.4 µM; in the assay on SF-295 CNS it was 3.88 µM; in the assay with HS 578T breast, 16.8 µM; with A498 renal, 4.27 µM.

On to `COc1cc(C2C3=C(COC3=O)N(CCO)c3cc4c(cc32)OCCO4)cc(OC)c1OC` (configuration not stated), for which the GI50 in the assay on NCI-H23 lung is 0.203 µM; in the assay with HL-60(TB) leukemia it was 0.155 µM; with NCI-H460 lung, 0.208 µM; with MOLT-4 leukemia it was 0.242 µM; in the assay with MDA-MB-231 breast, 0.185 µM; with NCI-H522 lung it was 0.0626 µM. Also, the GI50 was 0.345 µM in the assay with DU-145 prostate, 0.15 µM with SF-295 CNS, 0.164 µM with HS 578T breast and 0.14 µM in the assay with A498 renal. Moreover, the TGI in the assay with HL-60(TB) leukemia is 1.28 µM; in the assay with NCI-H460 lung, 1.68 µM; in the assay on MOLT-4 leukemia, > 11.4 µM; with MDA-MB-231 breast, 2.72 µM; with NCI-H522 lung, 0.185 µM; in the assay with DU-145 prostate, 0.943 µM. Also, the TGI in the assay with SF-295 CNS was found to be 4.66 µM; in the assay with HS 578T breast, 35.5 µM; with A498 renal, 0.441 µM.

Regarding `COc1ccccc1S(=O)(=O)Nc1ccc2c3c(cc(CCC(=O)NCCCCNc4cccc5c4C(=O)N(C4CCC(=O)NC4=O)C5=O)cc13)C(=O)N2C` (configuration not stated), the GI50 in the assay with NCI-H23 lung was 17 µM; with HL-60(TB) leukemia it was 0.0273 µM; in the assay with NCI-H460 lung, > 100 µM; in the assay with MOLT-4 leukemia, 0.0352 µM; in the assay on MDA-MB-231 breast it was 0.0351 µM; in the assay on NCI-H522 lung, 4.22 µM. For the same molecule, the GI50 in the assay on DU-145 prostate was 5.68 µM; in the assay with SF-295 CNS, 3.75 µM; in the assay with HS 578T breast, 0.186 µM; in the assay with A498 renal, 0.659 µM. The TGI is > 100 µM with NCI-H23 lung; > 100 µM in the assay on NCI-H460 lung; 0.295 µM in the assay with MDA-MB-231 breast; > 100 µM with NCI-H522 lung; > 100 µM in the assay with DU-145 prostate; > 100 µM in the assay with SF-295 CNS. The TGI in the assay with HS 578T breast worked out at 1.1 µM; in the assay with A498 renal, 6.08 µM.

Turning to `CN=C1C=CC(=C(c2ccc(N(C)C)cc2)c2ccc(N(C)C)cc2)C=C1`, the GI50 was 0.224 µM in the assay on NCI-H23 lung; 0.217 µM with HL-60(TB) leukemia; 0.13 µM with NCI-H460 lung; 0.369 µM with MOLT-4 leukemia; 0.267 µM with MDA-MB-231 breast; 0.253 µM in the assay on NCI-H522 lung. In addition, the GI50 in the assay with DU-145 prostate is 0.274 µM; with SF-295 CNS it was 0.147 µM; in the assay on HS 578T breast, 0.233 µM; in the assay with A498 renal, 0.193 µM. The TGI with NCI-H23 lung was determined as 1.02 µM; in the assay on HL-60(TB) leukemia, 0.519 µM; with NCI-H460 lung, 0.909 µM; in the assay with MOLT-4 leukemia it was 6.98 µM; with MDA-MB-231 breast, 0.785 µM; with NCI-H522 lung, 0.801 µM. Moreover, the TGI worked out at 1.71 µM with DU-145 prostate, 0.473 µM in the assay with SF-295 CNS, 3.02 µM with HS 578T breast and 0.734 µM in the assay on A498 renal.
